These results are taken from article PMC5108032, “Discovery of a Quinoline-4-carboxamide Derivative with a Novel Mechanism of Action, Multistage Antimalarial Activity, and Potent in Vivo Efficacy” (Journal of Medicinal Chemistry, 2016).

In one data set the test system is P. berghei ANKA strain. The data set is described as follows: In vivo antimalarial efficacy in the P. berghei mouse model (Peter's test). As to conditions: 4 × 30 mg/kg oral, once daily; mice cured / mice in group; 30 mg/kg. Details: species or system Plasmodium berghei in female NMRI mice. How it is done: Compound 41 was dosed as a bolus solution intravenously at 1 mg free base/kg (dose volume: 5 mL/kg; dose vehicle: 5% DMSO;saline) or by gavage orally as solution at 3 mg free base/kg (dose volume: 10 mL/kg; Dose vehicle: 0.5% w/v hydroxypropylmethylcellulose with 0.4% v/v Tween 80 and 0.5% v/v benzyl alcohol) to male Sprague Dawley rats (n=3/dose route). Blood samples were taken from each rat at 5, 15, 30 min, 1, 2, 4, 6, 8, 24 and 30 h post-dose, mixed with two volumes of distilled water and stored frozen until UPLC/MS/MS analysis.
Pharmacokinetic parameters were derived from the blood concentration time curve for each compound using PKsolutions software v 2.0 (Summit Research Services, USA).
In vivo antimalarial efficacy studies in P. berghei. (Swiss TPH)
In vivo efficacy was conducted as previously described10 with the modification that female NMRI mice (n = 3) were infected with a GFP-transfected P. berghei ANKA strain (donated by A. P. Waters and C. J. Janse, Leiden University, The Netherlands), and parasitaemia determined (96 h after infection) using standard flow cytometry techniques. Compounds 1, 25, 27, 30 and 49 were prepared in 10% DM SO, 40% PEG 400 and 50% water prior to administration orally, once daily for 4 days.
Compounds 40, 41, 43 and 44 were prepared in a non-solubilizing, standard suspension vehicle called HPMC (0.5% [wt/vol] hydroxypropylmethylcellulose, 0.5% [vol/vol] benzyl alcohol, 0.4% [vol/vol] Tween 80, and 0.9% [wt/vol] sodium chloride in water) prior to administration orally, once daily for 4 days. Blood samples were collected on day 4 (96 h after infection) in two volumes water. Animals […]
and then hourly up to 4 h after dosing each day. The animals were selected randomly for each group

Data set [1] is described as follows: Parallel artificial membrane permeability assay (PAMPA). Type of data set: in vitro ADME. As to conditions: relative to the earlier lead.
A short description of data set [2]: Intrinsic clearance in rat hepatocytes. The data set is classed as in vitro ADME.
The nature of data set [3]: Rat hepatic portal vein study. The data set is classed as in vivo.
A further data set is described as follows: Rat pharmacokinetics. The data set is classed as in vivo, male Sprague Dawley rats. Particulars: male Sprague Dawley rat, intravenous at 1 mg/kg. The protocol:
(100 µl) was then removed from both acceptor and donor compartments and mixed with acetonitrile (80 µl) containing an internal standard. The samples were centrifuged (10 min, 5 °C, 3270 g) to sediment precipitated protein and sealed prior to UPLC-MS/MS analysis using a Quattro Premier XE (Waters Corp, USA). Pe was calculated as shown in the below equation:
Pe (nm/sec) = 107 x - In [1 - CA (t) / Cequi]
CA(t) = peak area of compound present in acceptor well at time t = 18000 sec Cequi = [CD(t) * VD + CA(t) * VA] / (VD + VA)
VA = acceptor well volume
CD(t) = peak area of compound present in donor well at time t = 18000 sec Recovery of compound from donor and acceptor wells was calculated and data was only accepted when recovery exceeded 70 %. […]
Compound was dosed as a bolus solution intravenously (12) at 3mg free base/kg (dose volume: 5 mL/kg; dose vehicle: 10% DMSO, 90% saline) to female NMRI mice (n=3) or dosed orally (12 and 13) by gavage as a solution at 10 mg free base/kg (dose volume: 10mL/kg; Dose vehicle: 5 or 10% DMSO; 40% PEG400; 50 or 55% distilled water) to female NMRI mice (n=3/dose level). […] The level of each compound in mouse blood was determined by UPLC-MS/MS as previously reported.9 Pharmacokinetic parameters were derived from the blood concentration time curve using PKsolutions software v 2.0 (Summit Research Services, USA). […]

Values joined by “and” are separate entries in the source; they are usually repeats but may differ in a detail not shown here. Equal entries are not always repeated.

On to `O=C(NCCN1CCCC1)c1cc(NCCCCN2CCOCC2)nc2ccc(Cl)cc12` [Compound 27, 6-Chloro-2-((4-morpholinobutyl)amino)-N-(2-(pyrrolidin-1-yl)ethyl)quinoline-4-carboxamide], for which the cure result in the data set with P. berghei ANKA strain is “one out of three and 1/3”.
Consider `O=C(NCCN1CCCC1)c1cc(NCCC2CCOCC2)nc2ccc(Cl)cc12` [Compound 30, 6-Chloro-N-(2-(pyrrolidin-1-yl)ethyl)-2-((2-(tetrahydro-2H-pyran-4-yl)ethyl)amino)quinoline-4-carboxamide], for which, in data set [1], the increase in permeability result is reported as “more than 20 fold”. For the same molecule, the “intrinsic clearance in rat hepatocytes (Cli)” value in data set [2] was 3 mL min^–1 g^–1. In data set [3], this molecule registered a hepatic extraction of 76%.
In “Rat pharmacokinetics”, `O=C(NCCN1CCCC1)c1cc(-c2ccc(CN3CCOCC3)cc2F)nc2ccc(F)cc12` [Compound 41] showed a Clb of 32 mL min^–1 kg^–1.
